Reference: paper PMC5698418 (Nature Communications, 2017)
Counter-ions that a name gives are not always drawn. Like-named read-outs stand apart in the source and are kept apart here.

B1: WT: wild-type mouse Arc-Myc-FLAG protein overexpressed in Neuro2a cells (protein, UniProt Q9WV31 1-396, looked up)
Activity-regulated …: MELDHMTTGGLHAYPAPRGGPAAKPNVILQIGKCRAEMLEHVRRTHRHLLTEVSKQVERELKGLHRSVGKLENNLDGYVPTGDSQRWKKSIKACLCRCQETIANLERWVKREMHVWREVFYRLERWADRLESMGGKYPVGSEPARHTVSVGVGGPEPYCQEADGYDYTVSPYAITPPPAAGELPEQESVEAQQYQSWGPGEDGQPSPGVDTQIFEDPREFLSHLEEYLRQVGGSEEYWLSQIQNHMNGPAKKWWEFKQGSVKNWVEFKKEFLQYSEGTLSREAIQRELELPQKQGEPLDQFLWRKRDLYQTLYVDAEEEEIIQYVVGTLQPKLKRFLRHPLPKTLEQLIQRGMEVQDGLEQAAEPSGTPLPTEDETEALTPALTSESVASDRTQPE
modifications: Myc-FLAG tag

Experiments:
[1] = test system: BDNF-induced nuclear Arc expression in primary cortical neurons; assay: Chemogenomic screen: high-content image-based assay of BDNF-induced nuclear Arc expression (96-well); assay type: cell-based, mouse
Summary of the method: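 DIV13 mouse primary cortical neurons (30,000 cells/well) are treated with compound at 16.7 µM and BDNF, in three biological replicates. Arc and acetyl-H3K9 are immunostained and imaged at ×40, and nuclear Arc signal is quantified automatically using acetyl-H3K9 as the nuclear mask.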

[2] = test system: Neuro2a cells
Excerpt: Next, we aimed to determine whether the K24, K33, K55, and K70 residues participate in Arc protein turnover. […] We also included K70 in this experiment because of its position in the coiled-coil and nuclear retention domains of Arc (Fig. 5e) as well as its relative proximity to K55. For this test, we used site-directed mutagenesis to generate plasmids that would allow overexpression of an acetyl-mimic/unmodifiable mutant Arc-Myc-FLAG protein (lysine (K) to glutamine (Q) mutant) for each of these four sites. After transfecting sets of Neuro2a cells with these different constructs, we inhibited translation with CHX and monitored overexpressed protein levels for up to 6 h after.
Lysates were collected at the indicated time points and Arc-Myc-FLAG protein level analyzed in every sample by western blotting with an anti-FLAG antibody. Representative western blots are presented on top and quantification of data normalized to corresponding β-actin and presented as percentage of Arc-Myc-FLAG level (±SEM) at the initial time point after CHX application (t = 0). Curve represents exponential decay fit. b Estimate of protein half-life Arc for WT Arc-Myc-FLAG and each acetyl-mimic mutant is presented in table. c WT and acetyl-mutant Arc-Myc-FLAG polyubiquitination was determined in lysates from overexpressing Neuro2a cells. Lysates were immunoprecipitated with anti-FLAG and western blotted with anti-Ub or anti-Arc as indicated.
Neuro2A cells were cultured in DMEM (supplemented with 10% fetal bovine serum (Gemini-Bio-Products, West Sacramento, CA), penicillin (50 units ml^−1), and streptomycin (50 µg ml^−1)) and transfected overnight using Lipofectamine 2000 (Invitrogen) according to the manufacturer’s protocol. The Neuro2A cell line was generously shared by Dr. Grace Gill.
The pCMV6-Arc-Myc-DDK (FLAG) plasmid (MR206218) was purchased from OriGene Biotechnologies (Rockville, MD). The Arc-Myc-FLAG K24Q, K24R, K33Q, K55Q, K70Q, and K70R plasmids were generated with the help of the Q5 Site-Directed Mutagenesis Kit from New England BioLabs (Ipswich, MA) using WT pCMV6-Arc-Myc-FLAG as template. All constructs were verified by DNA sequencing.

[3] = chemogenomic (SMART) screen, BDNF-induced nuclear Arc expression, primary cortical neurons, BDNF control 19.5
[4] = nuclear Arc-positive cells relative to DMSO + BDNF control, negative values = decrease
[5] = BDNF-induced nuclear Arc expression, primary cortical neurons, chemogenomic screen
[6] = nuclear Arc-positive cells relative to DMSO control (BDNF), negative = decrease

| Molecule | Percentage of cell with nuclear Arc immunostaining above 2σ threshold [1, 3] [%] | Fold-change — Normalized to DMSO control (BDNF) [1, 4] [fold] | further results |
| --- | --- | --- | --- |
| CCN1CCC[C@H]1CNC(=O)c1cc(S(N)(=O)=O)ccc1OC [Levosulpiride] | 28.2 | 1.4 |  |
| COc1ccc2c3c1O[C@H]1C[C@@H](O)C=C[C@@]31CCN(C)C2 [Galantamine] |  |  | Percentage of cell with nuclear Arc immunostaining above 2σ threshold [1]: 4.2% |
| CCN(CC)C(C)CN1c2ccccc2Sc2ccccc21 (centres unmarked) [Ethopropazine] | 27.2 | 1.4 |  |
| CC(C)(N)C(=O)N[C@H](COCc1ccccc1)C(=O)N1CCC2(CC1)CN(S(C)(=O)=O)c1ccccc12 [Ibutamoren] |  |  | Percentage of cell with nuclear Arc immunostaining above 2σ threshold [1, 5]: 7.1% |
| O=c1[nH]c2ccccc2n1C1CCN(CCCC(c2ccc(F)cc2)c2ccc(F)cc2)CC1 [Pimozide] |  |  | Percentage of cell with nuclear Arc immunostaining above 2σ threshold [1, 5]: 1.1% |
| C[C@]12N[C@H](Cc3ccccc31)c1ccccc12 [Dizocilpine] |  | 1.1 | Percentage of cell with nuclear Arc immunostaining above 2σ threshold [1]: 21.2% |
| CN(C)CCC[C@@]1(c2ccc(F)cc2)OCc2cc(C#N)ccc21 [Escitalopram oxalate] | 26.3 | 1.4 |  |
| O=C([O-])CCCNC(=O)c1cccnc1.[Na+] [Picamilon sodium salt] | 29.2 | 1.5 |  |
| NC(=O)CN1CC(O)CC1=O (centres unmarked) [Oxiracetam] | 41.5 | 2.1 |  |
| Cc1ccc2c(c1)c1c(n2CCc2ccc(C)nc2)CCN(C)C1 [Latrepirdine] | 34.3 | 1.8 |  |
| O=C1[C@@H]2[C@H]3CC[C@H](C3)[C@@H]2C(=O)N1CCCCN1CCN(c2ncccn2)CC1 [Tandospirone] | 25.7 | 1.3 |  |
| O=C1[C@H]2CCCC[C@H]2C(=O)N1CCCCN1CCN(c2nsc3ccccc23)CC1 [Perospirone] | 17.9 |  |  |
| CC(C)C[C@H](NC(=O)[C@H](CCCCN)NC(=O)[C@H](CCCN=C(N)N)NC(=O)[C@H](C)NC(=O)[C@H](CO)NC(=O)[C@H](CCCCN)NC(=O)[C@H](CCCN=C(N)N)NC(=O)[C@H](C)NC(=O)CNC(=O)[C@@H](NC(=O)[C@H](Cc1ccccc1)NC(=O)CNC(=O)CNC(=O)[C@@H](N)Cc1ccccc1)[C@@H](C)O)C(=O)N[C@@H](C)C(=O)N[C@@H](CC(N)=O)C(=O)N[C@@H](CCC(N)=O)C(=O)O [Nociceptin] |  | 1.1 | Percentage of cell with nuclear Arc immunostaining above 2σ threshold [1]: 21.6% |
| CC1(C)O[C@@H]2[C@@H](CO[C@@]3(COS(N)(=O)=O)OC(C)(C)O[C@@H]23)O1 [Topiramate] |  |  | Percentage of cell with nuclear Arc immunostaining above 2σ threshold [1, 5]: 8.8% |
| NS(=O)(=O)c1cc2c(cc1Cl)NC(C1CC3C=CC1C3)NS2(=O)=O (centres unmarked) [Cyclothiazide] |  |  | Percentage of cell with nuclear Arc immunostaining above 2σ threshold [1, 5]: 8.4% |
| CN(C)CCC=C1c2ccccc2C=Cc2ccccc21 [Cyclobenzaprine] | 14.1 |  |  |
| CC12CC3CC(C)(C1)CC(N)(C3)C2 [Memantine] | 17.1 |  |  |
| NC(=O)N1c2ccccc2CC(=O)c2ccccc21 [Oxcarbazepine] | 23.6 | 1.2 |  |
| CCN(CC)CCNC(=O)c1cc(Br)c(N)cc1OC [Bromopride] | 27.7 | 1.4 |  |
| CCN(C)C(=O)Oc1cccc([C@H](C)N(C)C)c1 [Rivastigmine] |  | 1.7 | Percentage of cell with nuclear Arc immunostaining above 2σ threshold [1]: 33.7% |
| Oc1noc2c1CCNC2 [Gaboxadol] |  |  | Percentage of cell with nuclear Arc immunostaining above 2σ threshold [1]: 13.6% |
| NC[C@H](CC(=O)O)c1ccc(Cl)cc1 [(R)-Baclofen] | 31.8 | 1.6 |  |

| Molecule | Percentage of cell with nuclear Arc immunostaining above 2σ threshold [1, 3] [%] | Fold-change — Normalized to DMSO control (BDNF) [1, 4] [fold] | further results |
| --- | --- | --- | --- |
| NCC1(CC(=O)O)CCCCC1 [Gabapentin] |  |  | Percentage of cell with nuclear Arc immunostaining above 2σ threshold [1]: 9.0% |
| O=C(O[C@@H]1Cc2c(O)cc(O)cc2O[C@@H]1c1cc(O)c(O)c(O)c1)c1cc(O)c(O)c(O)c1 [(-)-Epigallocatechin gallate] | 38.0 | 1.9 |  |
| CCNC(=O)CC[C@H](N)C(=O)O [Theanine] |  |  | Percentage of cell with nuclear Arc immunostaining above 2σ threshold [1, 5]: 9.1% |
| COc1ccccc1C1(O)CCN(CCCn2c3ccccc3c3ccccc32)CC1 [NNC 05-2090] |  |  | Percentage of cell with nuclear Arc immunostaining above 2σ threshold [1]: 0.0%; Fold-change — Normalized to DMSO control (BDNF) [1, 6]: 0.0 fold |
| CNCC(O)c1ccc(O)cc1 (centres unmarked) [Synephrine] | 27.8 | 1.4 |  |
| Cn1cc(C2=C(c3coc4ccccc34)C(=O)NC2=O)c2cc(Br)ccc21 [ING-135] |  | 1.7 | Percentage of cell with nuclear Arc immunostaining above 2σ threshold [1]: 34.1% |
| OCCN1CCN(CCCN2c3ccccc3Sc3ccc(C(F)(F)F)cc32)CC1 [Fluphenazine] |  |  | Percentage of cell with nuclear Arc immunostaining above 2σ threshold [1, 5]: 0.3% |
| CCN[C@H]1CN(CCCOC)S(=O)(=O)c2sc(S(N)(=O)=O)cc21 [Brinzolamide] | 28.3 | 1.5 |  |
| O=C(CCCCCCC(=O)Nc1ccccc1)NO [Vorinostat] | 19.8 | 1.0 |  |
| CCC(C)C(CC)C(N)=O (centres unmarked) [Valnoctamide] | 24.6 | 1.3 |  |
| CN(C)CCCOc1nn(Cc2ccccc2)c2ccccc12 [Benzydamine] | 25.2 | 1.3 |  |
| OC[C@H]1O[C@@H](OCCc2ccc(O)cc2)[C@H](O)[C@@H](O)[C@@H]1O [Salidroside] | 30.7 | 1.6 |  |
| Nc1nnc(-c2cccc(Cl)c2Cl)c(N)n1 [Lamotrigine] |  |  | Percentage of cell with nuclear Arc immunostaining above 2σ threshold [1, 5]: 4.8% |
| CCNC1=Nc2ccc(Cl)cc2C(C)(c2ccccc2)O1 (centres unmarked) [Etifoxine] |  |  | Percentage of cell with nuclear Arc immunostaining above 2σ threshold [1]: 0.0% |
| O=C1c2ccccc2S(=O)(=O)N1CCCCN1CCN(c2ncccn2)CC1 [Ipsapirone] | 27.4 | 1.4 |  |
| Cc1cccc(C)c1NC(=O)CN1CCCC1=O [Nefiracetam] | 19.7 | 1.0 |  |
| Cn1c(=O)c2[nH]cnc2n(C)c1=O [Aminophylline] | 23.1 | 1.2 |  |
| COc1cc2c(NC3CCN(C4CCCCC4)CC3)nc(N3CCCN(C(C)C)CC3)nc2cc1OCCCN1CCCCC1 [UNC 0646] |  |  | Percentage of cell with nuclear Arc immunostaining above 2σ threshold [1, 5]: 5.2%; Fold-change — Normalized to DMSO control (BDNF) [1, 6]: -3.7 fold |
| Cl.O=C(O)C1CCCN(CCC=C(c2ccccc2)c2ccccc2)C1 (centres unmarked) [SKF 89976A hydrochloride] |  | 1.1 | Percentage of cell with nuclear Arc immunostaining above 2σ threshold [1]: 21.6% |
| CC(=O)NCCCS(=O)(=O)O [Acamprosate] |  |  | Percentage of cell with nuclear Arc immunostaining above 2σ threshold [1]: 9.4% |
| B1 |  |  | Estimated t½ [2]: 2.77 h; Fold-change to WT ([2]; protein half-life in Neuro2a): 1.00 |
